Test results: US20140329858A1, “Cyclic Urea Derivatives As Androgen Receptor Antagonists” (priority 2011, published 2014)

Tested on: Vcap cells
Test: Dihydrotestosterone (DHT) mediated XTT cell proliferation assay for screening AR antagonists using Vcap cells
Format: cell-based
Details: in the presence of 0.2 nM DHT, XTT readout on Day 10, IC50 curves from 8 concentrations
Procedure: Dihydrotestosterone (DHT) Mediated XTT Cell Proliferation Assay for Screening AR Antagonists Using Vcap cells
The Vcap cells (4×10^6 cells) were seeded in a T-75 flask containing DMEM with 15% FBS. After 72 hours, the media was removed; the cells were washed once and replaced with phenol red free DMEM containing 8% charcoal stripped serum. Then, the cells were starved in phenol red free DMEM with 8% charcoal stripped serum for 5 days. Following the starvation, the cells were harvested and seeded in 96 well plates (10×10^3 cells per well) in phenol red free DMEM with 8% charcoal stripped serum (Day 0). The cells were allowed to settle and on Day 4 they were treated with different concentrations of the compound (30 μM, 10 μM, 1 μM, 500 nM, 100 nM, 10 nM, 1 nM, 0.1 nM) in the presence of 0.2 nM DHT. DHT alone and a DMSO controls were also included. All treatments were done in triplicate. The drugs were replenished on Day 7 and the cells were allowed to grow for another 72 hours. On Day 10, the experiment was terminated by adding the XTT reagent (2,3-bis[2-methoxy-4-notro-5-sulfophenyl]-2H-tetrazolium-5-caboxyanilide inner salt) dissolved in Phenol red free DMEM without serum. The cells with the XTT reagents were incubated inside the CO2 incubator for 3-4 hours for color development; after which the readings were taken at […] using a spectramax Gemini plate reader.
Data fitting: The IC50 curves for the 8 compound concentrations were calculated with GraphPad Prism software using the sigmoidal dose-response function. (Graphpad Software, San Diego, Calif., USA).

| Compound | IC50 | IC50 (Homo sapiens, 240 h) |
| --- | --- | --- |
| 4-((3aS,7aS)-3-(4-cyano-3-(trifluoromethyl)phenyl)-2-oxooctahydro-1H-benzo[d]imidazol-1-yl)-2-fluoro-N—((S)-tetrahydrofuran-3-yl)benzamide and 4-((3aS,7aS)-3-(4-cyano-3-(trifluoromethyl)phenyl)-2-oxooctahydro-1H-benzo[c]imidazol-1-yl)-2-fluoro-N—((R)-tetrahydrofuran-3-yl)benzamide [Example 35] | 0.236 µM | – |
| N#Cc1ccc(N2C(=O)N(c3ccc(C(=O)N[C@@H]4CCOC4)c(F)c3)[C@@H]3CCCC[C@H]32)cc1C(F)(F)F (mixture of isomers) [Example 34, 4-((3aR,7aR)-3-(4-cyano-3-(trifluoromethyl)phenyl)-2-oxooctahydro-1H-benzo[d]imidazol-1-yl)-2-fluoro-N—((R)-tetrahydrofuran-3-yl)benzamide and 4-((3aS,7aS)-3-(4-cyano-3-(trifluoromethyl)phenyl)-2-oxooctahydro-1H-benzo[d]imidazol-1-yl)-2-fluoro-N—((R)-tetrahydrofuran-3-yl)benzamide] | – | 0.317 µM |
| CNC(=O)c1ccc(N2C(=O)N(c3ccc(C#N)c(C(F)(F)F)c3)[C@@H]3CCCC[C@H]32)cc1F (racemic) [Example 1, Trans-4-{3-[4-cyano-3-(trifluoromethyl)phenyl]-2-oxo-octahydro-1H-1,3-benzodiazol-1-yl}-2-fluoro-N-Methylbenzamide (±)] | – | 0.245 µM |
| N#Cc1ccc(N2C(=O)N(c3ccc(C#N)c(C(F)(F)F)c3)[C@@H]3CCCC[C@H]32)cc1C(F)(F)F (racemic) [Example 2, Trans-4,4′-(2-oxohexahydro-1H-benzo[d]imidazole-1,3(2H)-diyl)bis(2-(trifluoromethyl)benzonitrile) (±)] | – | 0.24 µM |
| N#Cc1ccc(N2C(=O)N(c3ccoc3)[C@@H]3CCCC[C@H]32)cc1C(F)(F)F (racemic) [Example 3, Trans-4-(3-(furan-3-yl)-2-oxoocta-hydro-1H-benzo[d]imidazol-1-yl)-2-trifluoromethyl)benzonitrile (±)] | – | 1.52 µM |
| N#Cc1ccc(N2C(=O)N(c3ccncc3)[C@@H]3CCCC[C@H]32)cc1C(F)(F)F (racemic) [Example 4, Trans-4-(2-oxo-3-(pyridin-4-yl)octahydro-1H-benzo[d]imidazol-1-yl)-2-(trifluoromethyl)benzonitrile (±)] | – | 1.04 µM |
| N#Cc1ccc(N2C(=O)N(c3ccccc3)[C@@H]3CCCC[C@H]32)cc1C(F)(F)F (racemic) [Example 5, Trans-4-(2-oxo-3-phenyloctahydro-1H-benzo[d]imidazol-1-yl)-2-(trifluoromethyl)benzonitrile (±)] | – | 1.02 µM |
| CCOC(=O)c1ccc(N2C(=O)N(c3ccc(C#N)c(C(F)(F)F)c3)[C@@H]3CCCC[C@H]32)cc1F (racemic) [Example 6, Trans-ethyl-4-(3-(4-cyano-3-trifluoromethyl)phenyl)-2-oxooctahydro-1H-benzo[d]imidazol-1-yl)-2-fluorobenzoate (±)] | – | > 10 µM |
| CCOC(=O)c1ccc(N2C(=O)N(c3ccc(C#N)c(C(F)(F)F)c3)[C@@H]3CCCC[C@H]32)s1 (racemic) [Example 8, Trans-ethyl-5-(3-(4-cyano-3-(trifluoromethyl)phenyl)-2-oxooctahydro-1H-benzo[d]imidazol-1-yl)thiophene-2-carboxylate (±)] | – | > 10 µM |
| N#Cc1ccc(N2C(=O)N(c3cccc(S(N)(=O)=O)n3)[C@@H]3CCCC[C@H]32)cc1C(F)(F)F (racemic) [Example 9, Trans-6-(3-(4-cyano-3-(trifluoromethyl)phenyl)-2-oxooctahydro-1H-benzo[c]imidazol-1-yl) pyridine-2-sulfonamide (±)] | – | > 10 µM |
| N#Cc1ccc(N2C(=O)N(c3ccnc(F)c3)[C@@H]3CCCC[C@H]32)cc1C(F)(F)F (racemic) [Example 10, Trans-4-(3-(2-fluoropyridin-4-yl)-2-oxooctahydro-1H-benzo[d]imidazol-1-yl)-2-(trifluoromethyl)benzonitrile (±)] | – | 0.365 µM |
| N#Cc1ccc(N2C(=O)N(c3ccnc(C(F)(F)F)c3)[C@@H]3CCCC[C@H]32)cc1C(F)(F)F (racemic) [Example 11, Trans-4-(2-oxo-3-(2-(trifluoromethyl)pyridin-4-yl)octahydro-1H-benzo[d]imidazol-1-yl)-2-(trifluoromethyl)benzonitrile (±)] | – | 1.24 µM |
| CC(=O)Nc1ccc(N2C(=O)N(c3ccc(C#N)c(C(F)(F)F)c3)[C@@H]3CCCC[C@H]32)cc1F (racemic) [Example 12] | – | 0.533 µM |
| CC(=O)N(C)c1ccc(N2C(=O)N(c3ccc(C#N)c(C(F)(F)F)c3)[C@@H]3CCCC[C@H]32)cc1F (racemic) [Example 13, Trans-N-(4-(3-(4-cyano-3-(trifluoromethyl)phenyl)-2-oxooctahydro-1H-benzo[d]imidazol-1-yl)-2-fluorophenyl)-N-methylacetamide (±)] | – | 1.05 µM |
| CNc1ccc(N2C(=O)N(c3ccc(C#N)c(C(F)(F)F)c3)[C@@H]3CCCC[C@H]32)cc1F (racemic) [Example 14, Trans-4-(3-(3-fluoro-4-(methylamino)phenyl)-2-oxooctahydro-1H-benzo[d]im-idazol-1-yl)-2-(trifluoromethyl)benzonitrile (±)] | – | 0.715 µM |
| N#Cc1ccc(N2C(=O)N(c3ccc(N)c(F)c3)[C@@H]3CCCC[C@H]32)cc1C(F)(F)F (racemic) [Example 15, Trans-(4-(-3-(4-amino-3-fluorophenyl)-2-oxooctahydro-1H-benzo[d]imidazol-1-yl)-2-(trifluoromethyl)benzonitrile (±)] | – | 0.823 µM |
| CS(=O)(=O)Nc1ccc(N2C(=O)N(c3ccc(C#N)c(C(F)(F)F)c3)[C@@H]3CCCC[C@H]32)cc1F (racemic) [Example 16, Trans-N-(4-(3-(4-cyano-3-(trifluoromethyl)phenyl)-2-oxooctahydro-1H-benzo[d]imidazol-1-yl)-2-fluorophenyl)methanesulfonamide (±)] | – | 2.45 µM |
| N#Cc1ccc(N2C(=O)N(c3ccc(C(=O)O)c(F)c3)[C@@H]3CCCC[C@H]32)cc1C(F)(F)F (racemic) [Example 17, Trans-4-(3-(4-cyano-3-(trifluoromethyl)phenyl)-2-oxooctahydro-1H-benzo[d]im-idazol-1-yl)-2-fluorobenzoic acid (±)] | – | > 10 µM |
| CONC(=O)c1ccc(N2C(=O)N(c3ccc(C#N)c(C(F)(F)F)c3)[C@@H]3CCCC[C@H]32)cc1F (racemic) [Example 18, Trans-4-(3-(4-cyano-3-(trifluoromethyl)phenyl)-2-oxooctahydro-1H-benzo[d]im-idazol-1-yl)-2-fluoro-N-methoxybenzamide (±)] | – | 0.374 µM |
| N#Cc1ccc(N2C(=O)N(c3ccc(C(=O)NOCC4CC4)c(F)c3)[C@@H]3CCCC[C@H]32)cc1C(F)(F)F (racemic) [Example 19, Trans-4-(3-(4-cyano-3-(trifluoromethyl)phenyl)-2-oxooctahydro-1H-benzo[d]im-idazol-1-yl)-N-(cyclopropylmethoxy)-2-fluorobenzamide (±)] | – | 0.233 µM |
| COCCONC(=O)c1ccc(N2C(=O)N(c3ccc(C#N)c(C(F)(F)F)c3)[C@@H]3CCCC[C@H]32)cc1F (racemic) [Example 20, Trans-4-(3-(4-cyano-3-(trifluoromethyl)phenyl)-2-oxooctahydro-1H-benzo[d]im-idazol-1-yl)-2-fluoro-N-(2-methoxyethoxy)benzamide (±)] | – | 0.322 µM |
| N#Cc1ccc(N2C(=O)N(c3ccc(C(=O)NOCC4CCC4)c(F)c3)[C@@H]3CCCC[C@H]32)cc1C(F)(F)F (racemic) [Example 21, Trans-4-(3-(4-cyano-3-(trifluoromethyl)phenyl)-2-oxooctahydro-1H-benzo[c]im-idazol-1-yl)-N-(cyclobutylmethoxy)-2-fluorobenzamide (±)] | – | 0.255 µM |
| CC(C)CONC(=O)c1ccc(N2C(=O)N(c3ccc(C#N)c(C(F)(F)F)c3)[C@@H]3CCCC[C@H]32)cc1F (racemic) [Example 22, Trans-4-(3-(4-cyano-3-(trifluoromethyl)phenyl)-2-oxooctahydro-1H-benzo[d]im-idazol-1-yl)-2-fluoro-N-isobutoxybenzamide (±)] | – | 0.196 µM |
| CC(COC(C)(C)C)ONC(=O)c1ccc(N2C(=O)N(c3ccc(C#N)c(C(F)(F)F)c3)[C@@H]3CCCC[C@H]32)cc1F (mixture of isomers) [Example 23, Trans-N-((1-(tert-butoxy)propan-2-yl)oxy)-4-(3-(4-cyano-3-(trifluoromethyl)phenyl)-2-oxooctahydro-1H-benzo[d]imidazol-1-yl)-2-fluorobenzamide (±)] | > 10 µM | – |
| CC(CO)ONC(=O)c1ccc(N2C(=O)N(c3ccc(C#N)c(C(F)(F)F)c3)[C@@H]3CCCC[C@H]32)cc1F (mixture of isomers) [Example 24, Trans-4-(3-(4-cyano-3-(trifluoromethyl)phenyl)-2-oxooctahydro-1H-benzo[c]im-idazol-1-yl)-2-fluoro-N-((1-hydroxypropan-2-yl)oxy)benzamide (±)] | – | 1.52 µM |
